Data on four compounds can be found in ChEMBL document CHEMBL4261615, “Design, synthesis, biological evaluation and cellular imaging of imidazo[4,5-b]pyridine derivatives as potent and selective TAM inhibitors” (Bioorg Med Chem, 2018).

The target of test [1] is Epidermal growth factor receptor (Homo sapiens) (UniProt P00533). In words: Binding affinity to partial length wild type human EGFR (R669 to V1011 residues) expressed in bacterial expression system assessed as fraction of unbound kinase to substrate at 10 uM after 1 hr by KinomeScan assay.
Chain of Epidermal growth factor receptor (Homo sapiens) (P00533 whole entry, the tested form may be a part): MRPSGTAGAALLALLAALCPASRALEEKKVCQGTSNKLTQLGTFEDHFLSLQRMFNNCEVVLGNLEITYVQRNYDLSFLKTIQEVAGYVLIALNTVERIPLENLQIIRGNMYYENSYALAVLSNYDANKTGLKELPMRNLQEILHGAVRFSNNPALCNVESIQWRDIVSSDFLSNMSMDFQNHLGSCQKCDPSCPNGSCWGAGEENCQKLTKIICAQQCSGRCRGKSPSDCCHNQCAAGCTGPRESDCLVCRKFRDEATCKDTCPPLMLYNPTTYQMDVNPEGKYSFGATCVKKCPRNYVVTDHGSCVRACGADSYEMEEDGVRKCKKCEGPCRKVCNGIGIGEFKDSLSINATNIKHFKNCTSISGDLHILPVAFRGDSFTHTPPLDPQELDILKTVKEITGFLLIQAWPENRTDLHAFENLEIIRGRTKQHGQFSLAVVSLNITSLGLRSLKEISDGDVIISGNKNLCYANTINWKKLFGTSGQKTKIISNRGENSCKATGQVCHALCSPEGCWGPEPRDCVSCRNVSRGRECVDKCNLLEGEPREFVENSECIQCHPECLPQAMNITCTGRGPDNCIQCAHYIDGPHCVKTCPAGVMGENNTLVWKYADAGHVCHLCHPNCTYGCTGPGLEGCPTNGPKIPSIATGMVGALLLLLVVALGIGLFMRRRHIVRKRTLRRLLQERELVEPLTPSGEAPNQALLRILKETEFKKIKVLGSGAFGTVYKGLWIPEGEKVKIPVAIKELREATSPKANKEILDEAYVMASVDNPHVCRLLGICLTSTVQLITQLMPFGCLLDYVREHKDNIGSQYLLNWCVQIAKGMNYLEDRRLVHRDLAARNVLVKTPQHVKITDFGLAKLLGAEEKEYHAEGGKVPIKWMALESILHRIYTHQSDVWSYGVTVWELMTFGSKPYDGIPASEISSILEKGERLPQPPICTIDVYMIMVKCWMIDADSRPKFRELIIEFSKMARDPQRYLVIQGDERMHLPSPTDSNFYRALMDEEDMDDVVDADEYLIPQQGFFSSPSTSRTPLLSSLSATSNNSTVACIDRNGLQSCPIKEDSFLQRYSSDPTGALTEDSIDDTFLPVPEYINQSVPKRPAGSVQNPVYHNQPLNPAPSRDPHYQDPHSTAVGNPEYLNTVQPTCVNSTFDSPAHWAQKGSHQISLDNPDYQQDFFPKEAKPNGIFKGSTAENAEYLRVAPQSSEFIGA
Test [2] deals with T1, Tyrosine-protein kinase Mer (Homo sapiens) (UniProt Q12866).
T1 sequence (whole entry): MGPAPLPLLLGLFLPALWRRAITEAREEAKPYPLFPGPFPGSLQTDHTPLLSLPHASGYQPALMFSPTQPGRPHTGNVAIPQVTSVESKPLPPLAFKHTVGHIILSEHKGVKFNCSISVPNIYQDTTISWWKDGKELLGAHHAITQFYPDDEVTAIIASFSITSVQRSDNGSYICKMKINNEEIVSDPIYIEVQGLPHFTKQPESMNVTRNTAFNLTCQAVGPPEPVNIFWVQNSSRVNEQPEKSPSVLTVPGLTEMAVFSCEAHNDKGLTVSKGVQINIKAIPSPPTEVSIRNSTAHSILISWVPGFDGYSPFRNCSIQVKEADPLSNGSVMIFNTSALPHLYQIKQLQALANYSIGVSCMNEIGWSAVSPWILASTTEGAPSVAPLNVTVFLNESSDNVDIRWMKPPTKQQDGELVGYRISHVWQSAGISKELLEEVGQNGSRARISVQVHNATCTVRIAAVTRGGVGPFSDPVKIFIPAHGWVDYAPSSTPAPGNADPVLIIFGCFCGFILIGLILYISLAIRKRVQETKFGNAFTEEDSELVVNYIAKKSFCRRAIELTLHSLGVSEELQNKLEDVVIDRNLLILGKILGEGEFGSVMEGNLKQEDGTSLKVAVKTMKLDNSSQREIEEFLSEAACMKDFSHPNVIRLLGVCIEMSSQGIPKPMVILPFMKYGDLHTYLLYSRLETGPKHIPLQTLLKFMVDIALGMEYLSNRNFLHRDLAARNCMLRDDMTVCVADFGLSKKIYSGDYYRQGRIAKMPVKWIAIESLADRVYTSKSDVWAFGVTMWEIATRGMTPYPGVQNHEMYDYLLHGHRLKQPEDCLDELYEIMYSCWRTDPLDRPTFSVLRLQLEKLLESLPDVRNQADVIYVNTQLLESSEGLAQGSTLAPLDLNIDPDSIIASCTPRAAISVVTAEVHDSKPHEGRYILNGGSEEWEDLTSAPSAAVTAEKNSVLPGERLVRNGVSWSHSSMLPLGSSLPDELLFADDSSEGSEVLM
In words: Binding affinity to wild-type partial length human MER (R557 to L884 residues) expressed in bacterial expression system assessed as fraction of unbound kinase to substrate at 10 uM after 1 hr by KinomeScan assay.

Test [3] has as its target Cyclin-dependent kinase 2 (Homo sapiens) (UniProt P24941). In words: Binding affinity to wild-type human full length CDK2 (M1 to L298 residues) expressed in bacterial expression system assessed as fraction of unbound kinase to substrate at 10 uM after 1 hr by KinomeScan assay.
Test [4] addresses Serine/threonine-protein kinase B-raf (Homo sapiens) (UniProt P15056). In words: Binding affinity to wild-type human partial length BRAF (S429 to E741 residues) expressed in mammalian expression system assessed as fraction of unbound kinase to substrate at 10 uM after 1 hr by KinomeScan assay.
Test [5] has as its target T2, Tyrosine-protein kinase receptor TYRO3 (Homo sapiens) (UniProt Q06418).
T2 sequence (whole entry): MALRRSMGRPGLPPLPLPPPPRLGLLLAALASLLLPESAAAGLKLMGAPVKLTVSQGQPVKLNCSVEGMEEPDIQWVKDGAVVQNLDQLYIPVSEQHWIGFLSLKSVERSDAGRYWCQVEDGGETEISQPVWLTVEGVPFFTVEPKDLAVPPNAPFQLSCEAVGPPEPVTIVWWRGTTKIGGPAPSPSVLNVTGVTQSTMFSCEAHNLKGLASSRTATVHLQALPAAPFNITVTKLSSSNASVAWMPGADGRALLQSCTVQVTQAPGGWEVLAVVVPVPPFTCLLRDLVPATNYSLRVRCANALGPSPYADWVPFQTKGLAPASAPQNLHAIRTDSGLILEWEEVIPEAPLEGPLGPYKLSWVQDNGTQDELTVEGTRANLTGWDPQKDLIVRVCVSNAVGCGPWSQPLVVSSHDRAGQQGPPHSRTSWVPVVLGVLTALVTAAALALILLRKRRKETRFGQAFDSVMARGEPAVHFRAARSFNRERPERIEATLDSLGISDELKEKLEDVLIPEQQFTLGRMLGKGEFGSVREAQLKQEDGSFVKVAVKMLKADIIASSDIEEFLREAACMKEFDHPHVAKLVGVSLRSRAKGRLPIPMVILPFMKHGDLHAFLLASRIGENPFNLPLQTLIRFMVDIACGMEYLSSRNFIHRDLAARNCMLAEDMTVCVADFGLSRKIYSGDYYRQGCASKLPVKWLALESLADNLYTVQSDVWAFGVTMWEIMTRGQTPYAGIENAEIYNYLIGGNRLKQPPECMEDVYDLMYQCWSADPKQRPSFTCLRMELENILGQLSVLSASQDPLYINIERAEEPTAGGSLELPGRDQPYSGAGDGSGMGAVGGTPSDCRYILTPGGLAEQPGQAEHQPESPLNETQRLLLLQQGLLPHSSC
In words: Binding affinity to wild-type human partial length TYRO3 (S497 to T814 residues) expressed in bacterial expression system assessed as fraction of unbound kinase to substrate at 1 uM after 1 hr by KinomeScan assay.

Test [6] deals with Serine/threonine-protein kinase B-raf (Homo sapiens) (UniProt P15056). In words: Binding affinity to wild-type human partial length BRAF (S429 to E741 residues) expressed in mammalian expression system assessed as fraction of unbound kinase to substrate at 1 uM after 1 hr by KinomeScan assay.
Chain of Serine/threonine-protein kinase B-raf (Homo sapiens) (P15056 whole entry, the tested form may be a part): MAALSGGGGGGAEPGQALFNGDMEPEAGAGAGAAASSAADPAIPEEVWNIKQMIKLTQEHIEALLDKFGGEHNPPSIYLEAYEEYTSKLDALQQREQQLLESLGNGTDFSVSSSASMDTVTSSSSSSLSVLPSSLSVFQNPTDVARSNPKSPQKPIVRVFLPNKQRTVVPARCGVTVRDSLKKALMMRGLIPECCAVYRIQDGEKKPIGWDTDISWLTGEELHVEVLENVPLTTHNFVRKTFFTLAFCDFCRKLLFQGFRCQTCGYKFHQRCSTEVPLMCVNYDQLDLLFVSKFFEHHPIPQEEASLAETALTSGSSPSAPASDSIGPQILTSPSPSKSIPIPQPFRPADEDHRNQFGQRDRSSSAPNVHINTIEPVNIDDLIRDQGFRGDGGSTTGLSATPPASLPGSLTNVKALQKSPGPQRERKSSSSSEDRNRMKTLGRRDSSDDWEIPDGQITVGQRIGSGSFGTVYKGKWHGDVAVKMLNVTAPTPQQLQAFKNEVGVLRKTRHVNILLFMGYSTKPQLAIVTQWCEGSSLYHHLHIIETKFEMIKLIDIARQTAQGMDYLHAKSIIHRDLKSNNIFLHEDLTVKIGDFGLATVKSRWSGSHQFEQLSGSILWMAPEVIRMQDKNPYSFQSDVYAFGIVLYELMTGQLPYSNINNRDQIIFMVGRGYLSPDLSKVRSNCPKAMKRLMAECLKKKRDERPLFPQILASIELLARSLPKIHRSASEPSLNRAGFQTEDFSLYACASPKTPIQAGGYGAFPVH
Test [7] concerns the target Hepatocyte growth factor receptor (Homo sapiens) (UniProt P08581). In words: Binding affinity to human MET (D1010 to S1367 residues) expressed in bacterial expression system assessed as fraction of unbound kinase to substrate at 0.1 uM after 1 hr by KinomeScan assay.
In test [8] the target is Serine/threonine-protein kinase B-raf (Homo sapiens) (UniProt P15056). In words: Binding affinity to wild-type human partial length BRAF (S429 to E741 residues) expressed in mammalian expression system assessed as fraction of unbound kinase to substrate at 0.1 uM after 1 hr by KinomeScan assay.
Test [9] deals with Glycogen synthase kinase-3 beta (Homo sapiens) (UniProt P49841). In words: Binding affinity to full length wild type human GSK3beta (M1 to T433 residues) expressed in mammalian expression system assessed as fraction of unbound kinase to substrate at 10 uM after 1 hr by KinomeScan assay.
Chain of Glycogen synthase kinase-3 beta (Homo sapiens) (P49841 whole entry, looked up, the tested form may be a part): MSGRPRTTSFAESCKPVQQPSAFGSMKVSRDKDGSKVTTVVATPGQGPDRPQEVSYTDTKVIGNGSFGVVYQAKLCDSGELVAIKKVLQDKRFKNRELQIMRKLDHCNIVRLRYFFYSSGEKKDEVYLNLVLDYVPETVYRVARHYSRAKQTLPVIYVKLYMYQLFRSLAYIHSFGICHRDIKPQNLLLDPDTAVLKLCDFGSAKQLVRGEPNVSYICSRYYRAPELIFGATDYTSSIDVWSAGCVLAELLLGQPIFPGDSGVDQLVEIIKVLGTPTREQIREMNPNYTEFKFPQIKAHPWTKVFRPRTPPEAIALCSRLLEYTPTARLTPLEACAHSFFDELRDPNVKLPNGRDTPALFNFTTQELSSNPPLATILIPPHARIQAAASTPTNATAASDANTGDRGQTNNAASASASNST
Test [10] shares this target. In words: Binding affinity to full length wild type human GSK3beta (M1 to T433 residues) expressed in mammalian expression system assessed as fraction of unbound kinase to substrate at 1 uM after 1 hr by KinomeScan assay.
Test [11] has the same target. In words: Binding affinity to full length wild type human GSK3beta (M1 to T433 residues) expressed in mammalian expression system assessed as fraction of unbound kinase to substrate at 0.1 uM after 1 hr by KinomeScan assay.
The species named for a further test is Homo sapiens. In words: Antiproliferative activity against human MGHU3 cells after 72 hrs by CellTiter-Glo assay. Format: functional, cell-based. Background: In ATP-based viability assays light output follows the ATP content of the culture.

The source made the active and inactive calls. The calls are words filed in the database; no cut-off is given here.

Chain of Hepatocyte growth factor receptor (Homo sapiens) (P08581 whole entry, the tested form may be a part): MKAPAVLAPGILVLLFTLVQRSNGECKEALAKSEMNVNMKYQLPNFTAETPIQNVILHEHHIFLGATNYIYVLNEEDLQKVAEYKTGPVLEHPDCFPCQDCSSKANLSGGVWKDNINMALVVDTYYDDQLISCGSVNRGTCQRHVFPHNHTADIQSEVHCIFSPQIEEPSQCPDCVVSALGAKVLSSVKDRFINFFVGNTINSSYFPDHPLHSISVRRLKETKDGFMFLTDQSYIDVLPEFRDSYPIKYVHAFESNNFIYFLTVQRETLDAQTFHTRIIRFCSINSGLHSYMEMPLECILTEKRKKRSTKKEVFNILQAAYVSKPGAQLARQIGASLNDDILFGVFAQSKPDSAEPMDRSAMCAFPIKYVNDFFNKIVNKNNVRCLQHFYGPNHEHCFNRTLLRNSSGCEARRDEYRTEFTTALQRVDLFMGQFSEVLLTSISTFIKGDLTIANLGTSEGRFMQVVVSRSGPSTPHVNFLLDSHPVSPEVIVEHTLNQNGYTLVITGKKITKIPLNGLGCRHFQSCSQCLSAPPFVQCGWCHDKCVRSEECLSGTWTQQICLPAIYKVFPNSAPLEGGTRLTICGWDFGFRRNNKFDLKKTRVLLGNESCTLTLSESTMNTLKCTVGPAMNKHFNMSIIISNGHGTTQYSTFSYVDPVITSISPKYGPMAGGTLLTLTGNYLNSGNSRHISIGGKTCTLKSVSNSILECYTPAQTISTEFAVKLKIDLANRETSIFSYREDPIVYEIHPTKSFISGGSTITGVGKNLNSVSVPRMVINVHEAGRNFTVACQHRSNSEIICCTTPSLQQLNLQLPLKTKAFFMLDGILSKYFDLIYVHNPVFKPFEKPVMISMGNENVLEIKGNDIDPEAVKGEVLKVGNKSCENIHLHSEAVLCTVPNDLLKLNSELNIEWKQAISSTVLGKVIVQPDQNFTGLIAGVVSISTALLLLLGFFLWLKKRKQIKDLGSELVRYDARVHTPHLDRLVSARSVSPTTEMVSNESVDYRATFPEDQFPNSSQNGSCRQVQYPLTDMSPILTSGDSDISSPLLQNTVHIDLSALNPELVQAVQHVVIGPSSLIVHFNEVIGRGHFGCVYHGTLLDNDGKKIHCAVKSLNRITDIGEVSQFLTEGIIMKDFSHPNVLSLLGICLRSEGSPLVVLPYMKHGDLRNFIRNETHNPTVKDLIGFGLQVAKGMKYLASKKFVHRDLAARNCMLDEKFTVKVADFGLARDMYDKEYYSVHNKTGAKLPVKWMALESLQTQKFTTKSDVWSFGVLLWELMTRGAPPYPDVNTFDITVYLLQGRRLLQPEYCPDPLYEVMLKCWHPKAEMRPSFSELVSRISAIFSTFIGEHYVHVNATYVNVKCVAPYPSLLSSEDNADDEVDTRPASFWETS

Take `O=C(Nc1ccc(Oc2ccnc3[nH]cnc23)c(F)c1)c1cccn(-c2ccc(F)cc2)c1=O`: the Activity in test [1] was found to be 0%; in test [2], 99.6%; in [3], 48%; in [4], 58%; in [5], 81%; in test [6] it was 12%. In addition, the Activity in [7] turned out to be 83%; in test [8], 9%; in test [9] it was 6%; in test [10], 5%; in test [11] it was 0%. Besides, the result in the test filed under Homo sapiens was inactive.
In the case of `O=C(Nc1ccc(Oc2c(Br)cnc3[nH]cnc23)c(F)c1)c1cccn(-c2ccc(F)cc2)c1=O`, the Activity in test [1] was determined as 1%; in test [2] it was 98.2%; in [3] it was 32%; in test [4] it was 10%; in [5], 11%; in test [6] it was 0%. Moreover, the Activity in [7] was determined as 12%; in [8] it was 0%; in test [9] it was 0%; in [10], 1%; in test [11], 0%.
As to `Cc1cnc2[nH]cnc2c1Oc1ccc(NC(=O)c2cccn(-c3ccc(F)cc3)c2=O)cc1F`, the Activity stood at 0% in test [1]; 99.1% in test [2]; 3% in test [3]; 18% in test [4]; 0% in test [5]; 2% in [6]. Besides, the Activity was 54% in test [7]; 0% in [8]; 0% in [9]; 5% in test [10]; 2% in test [11]. The result in the test listed under Homo sapiens was inactive.
On to `CC(C)c1nc2c(Oc3ccc(NC(=O)c4cccn(-c5ccc(F)cc5)c4=O)cc3F)ccnc2[nH]1`, for which the Activity came to 8% in [1]; 99.1% in test [2]; 99.7% in test [3]; 43% in test [4]; 39% in [5]; 8% in test [6]. The Activity in test [7] was 83%; in [8], 0%; in test [9], 0%; in [10], 0%; in [11], 0%. Besides, in the test listed under Homo sapiens, the outcome was inactive.
